Experimental data reported in ChEMBL document CHEMBL1131831, “A rapid method to identify exo-protease inhibitors” (Bioorg Med Chem Lett, 1999).

Assays:
Trypsin = Trypsin (Sus scrofa, UniProt P00761); test: Inhibition constant (Ki) against trypsin enzyme for the conversion of water-soluble compound to fluorescent oil-soluble compound
[1] = target: Leukocyte elastase (Homo sapiens); test: Inhibition constant (Ki) against human leukocyte elastase.
[2] = target: Leukocyte elastase (Homo sapiens); test: Inhibition constant (Ki) when mixed with p-nitroanilide against human leukocyte elastase for the conversion of water-soluble compound to fluorescent oil-soluble compound

Chain of Trypsin (P00761 whole entry): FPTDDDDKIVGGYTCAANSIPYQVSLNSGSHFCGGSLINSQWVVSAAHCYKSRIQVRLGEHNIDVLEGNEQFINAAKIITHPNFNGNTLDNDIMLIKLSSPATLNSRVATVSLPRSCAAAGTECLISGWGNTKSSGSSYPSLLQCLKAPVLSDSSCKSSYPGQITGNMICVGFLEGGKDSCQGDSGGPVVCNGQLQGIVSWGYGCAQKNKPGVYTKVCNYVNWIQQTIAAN

Ki (Trypsin) | Ki [1] | Ki [2] | Structure (SMILES)
~800 µM | – | – | O=C1C=CC(=O)N1c1ccccc1
– | 248 µM | – | CC(NC(=O)[C@H](C)NC(=O)c1cccc2c1Oc1c(C(=O)NC(C)C(=O)N[C@@H](C)C(=O)O)cccc1C2(C)C)C(=O)O (single isomer, unassigned)
– | 515 µM | – | CC(C)C(NC(=O)c1cccc2c1Oc1c(C(=O)N[C@H](C(=O)O)C(C)C)cccc1C2(C)C)C(=O)O (single isomer, unassigned)
– | 86 µM | 0.128 µM | CC(NC(=O)[C@H](C)NC(=O)c1cccc2c1Oc1c(C(=O)NC(C(=O)O)C(C)C)cccc1C2(C)C)C(=O)O (single isomer, unassigned)
